Assay: xn = mol fraction of the nth substance listed
Settings: 298.15 K, Liquid

CCCCCl [1-chlorobutane] + CN(C)C=O
mass density [kg/m3]
Settings | x2 = 0.0998 | x2 = 0.1981 | x2 = 0.2988 | x2 = 0.4019 | x2 = 0.501 | x2 = 0.6087 | x2 = 0.7008 | x2 = 0.8163 | x2 = 0.9007
100 kPa | 885.5 | 890.7 | 896.3 | 902.3 | 908.6 | 915.5 | 921.8 | 930.2 | 936.6
2000 kPa | 887.4 | 892.5 | 898 | 903.9 | 910.1 | 917 | 923.1 | 931.5 | 937.8
4000 kPa | 889.3 | 894.4 | 899.8 | 905.7 | 911.7 | 918.5 | 924.6 | 932.8 | 939.1
6000 kPa | 891.2 | 896.3 | 901.6 | 907.3 | 913.3 | 920 | 926 | 934.2 | 940.3
7900 kPa | – | – | – | – | – | – | 927.5 | – | –
8000 kPa | 893.1 | 898.1 | 903.3 | 908.9 | 914.9 | 921.5 | – | 935.4 | 941.5
10000 kPa | 895.1 | 900 | 905.1 | 910.7 | 916.6 | 923 | 928.8 | 936.8 | 942.9
11900 kPa | – | – | – | – | 918 | – | – | – | –
12000 kPa | 896.9 | 901.6 | 906.8 | 912.2 | – | 924.4 | 930.3 | 938.1 | 944.1
14000 kPa | 898.6 | 903.4 | 908.4 | 913.8 | 919.5 | 925.9 | 931.7 | 939.3 | 945.3
16000 kPa | 900.4 | 905.1 | 910.1 | 915.3 | 921 | 927.21 | 933 | 940.6 | 946.4
18000 kPa | 902.1 | 906.8 | 911.7 | 916.7 | 922.4 | – | 934.3 | 941.8 | 947.5
18100 kPa | – | – | – | – | – | 928.6 | – | – | –
20000 kPa | 903.8 | 908.7 | 913.1 | 918.3 | 924 | 930.2 | 935.6 | 943.3 | 949.1

CCCCCCCl [1-chlorohexane] + CN(C)C=O
mass density [kg/m3]
Settings | x2 = 0.097 | x2 = 0.2019 | x2 = 0.2707 | x2 = 0.4007 | x2 = 0.5017 | x2 = 0.6155 | x2 = 0.6988 | x2 = 0.7993 | x2 = 0.9018
100 kPa | 876.9 | 881.2 | 884.4 | 891.3 | 897.4 | 905.4 | 912.7 | 921.8 | 932.6
2000 kPa | 878.5 | 882.8 | 885.9 | 892.8 | 898.8 | 906.9 | 914 | 923.1 | 933.8
4000 kPa | 880.2 | 884.4 | 887.5 | 894.3 | 900.3 | 908.4 | 915.5 | 924.4 | 935.1
6000 kPa | 881.8 | 886 | 889.1 | 895.8 | 901.8 | 909.8 | 916.8 | 925.7 | 936.4
8000 kPa | 883.4 | 887.6 | 890.7 | 897.3 | 903.3 | 911.2 | 918.2 | 927 | 937.6
10000 kPa | 885.1 | 889.3 | 892.3 | 898.8 | 904.8 | 912.7 | 919.6 | 928.4 | 938.9
11900 kPa | – | – | – | – | – | 914 | – | – | –
12000 kPa | 886.7 | 890.8 | 893.8 | 900 | 906.3 | – | 920.9 | 929.7 | 940.1
13900 kPa | – | – | – | – | – | – | – | 930.9 | –
14000 kPa | 888.2 | 892.3 | 895.2 | 901.8 | 907.6 | 915.4 | 922.3 | – | 941.3
16000 kPa | 889.7 | 893.8 | 896.7 | 903.2 | 909.1 | 916.8 | 923 | 932.1 | 942.5
17900 kPa | – | – | – | – | – | – | – | 933.3 | –
18000 kPa | 891.2 | 895.3 | 898.1 | 904.6 | 910.4 | 918.1 | 924.9 | – | 943.6
20000 kPa | 892.8 | 896.6 | 899.6 | 906 | 911.8 | 919.5 | 926.2 | 934.6 | 944.9

From the NIST ThermoML archive (doi:10.1021/je700096m)
